ChEMBL document CHEMBL1201862, “PubChem BioAssay data set” (2004)
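Method: 48-hour compound exposure of cells in 96-well plates, five concentrations, linear interpolation of endpoints. The concentration for 50% growth inhibition is given as GI50.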 The source made the active and inactive calls. Rule as the data show it: active = GI50 up to about 1.1 µM and inactive = higher.

Experiments:
Assay in all cases: NCI tumour cell line growth inhibition, 48 h
[1] = tested on: UO-31
[2] = tested on: SF-539
[3] = tested on: DMS-273
[4] = tested on: HL-60
[5] = tested on: SNB-75
[6] = tested on: CCRF-CEM
[7] = tested on: COLO 205
[8] = tested on: HOP-92
[9] = tested on: RXF 631
[10] = tested on: SK-OV-3
[11] = tested on: K562
[12] = tested on: NCI-H460
[13] = tested on: CAKI-1
[14] = tested on: IGROV-1
[15] = tested on: Malme-3M
[16] = tested on: EKVX
[17] = tested on: 786-0
[18] = tested on: SR
[19] = tested on: SNB-78
[20] = tested on: TK-10
[21] = tested on: A549
[22] = tested on: HOP-62
[23] = tested on: OVCAR-4
[24] = tested on: UACC-62
[25] = tested on: SF-268
[26] = tested on: UACC-257
[27] = tested on: SK-MEL-5
[28] = tested on: HCT-15
[29] = tested on: ACHN
[30] = tested on: M14
[31] = tested on: LOX IMVI
[32] = tested on: SF-295
[33] = tested on: HCC 2998
[34] = tested on: SK-MEL-2
[35] = tested on: NCI-H23
[36] = tested on: A498
[37] = tested on: MOLT-4
[38] = tested on: RXF 393
[39] = tested on: SNB-19
[40] = tested on: LXFL 529
[41] = tested on: SW-620
[42] = tested on: M19-MEL
[43] = tested on: DMS-114
[44] = tested on: OVCAR-8
[45] = tested on: RPMI-8226
[46] = tested on: SK-MEL-28
[47] = tested on: XF498
[48] = tested on: HOP-18
[49] = tested on: KM12
[50] = tested on: KM-20L2
[51] = tested on: SN12C
[52] = tested on: OVCAR-3
[53] = tested on: HT-29
[54] = tested on: U-251
[55] = tested on: HCT-116
[56] = tested on: DLD-1
[57] = tested on: OVCAR-5
[58] = tested on: NCI-H226
[59] = tested on: NCI-H522

## CC12CC(Sc3ccccc3N1)c1ccccc1O2 (configuration not stated)
[1]
  GI50: 14.1 µM (inactive)
[2]
  GI50: 17.5 µM (inactive)
[3]
  GI50: 16.3 µM (inactive)
[4]
  GI50: 11 µM (inactive)
[5]
  GI50: 28.2 µM (inactive)
[6]
  GI50: 12.1 µM (inactive)
[7]
  GI50: 16.2 µM (inactive)
[8]
  GI50: 18.7 µM (inactive)
[9]
  GI50: 15.1 µM (inactive)
[10]
  GI50: 33.7 µM (inactive)
[11]
  GI50: 14.3 µM (inactive)
[12]
  GI50: 16.6 µM (inactive)
[13]
  GI50: 19.2 µM (inactive)
[14]
  GI50: 21.9 µM (inactive)
[15]
  GI50: 16.1 µM (inactive)
[16]
  GI50: 18.6 µM (inactive)
[17]
  GI50: 17.7 µM (inactive)
[18]
  GI50: 13.6 µM (inactive)
[19]
  GI50: 16.5 µM (inactive)
[20]
  GI50: 28.9 µM (inactive)
[21]
  GI50: 18.8 µM (inactive)
[22]
  GI50: 19.6 µM (inactive)
[23]
  GI50: 17 µM (inactive)
[24]
  GI50: 17 µM (inactive)
[25]
  GI50: 16.1 µM (inactive)
[26]
  GI50: 14.5 µM (inactive)
[27]
  GI50: 14.8 µM (inactive)
[28]
  GI50: 15.6 µM
[29]
  GI50: 16.9 µM (inactive)
[30]
  GI50: 18.3 µM (inactive)
[31]
  GI50: 13.7 µM (inactive)
[32]
  GI50: 16 µM (inactive)
[33]
  GI50: 17.1 µM (inactive)
[34]
  GI50: 12.8 µM (inactive)
[35]
  GI50: 15.7 µM (inactive)
[36]
  GI50: 18.5 µM (inactive)
[37]
  GI50: 16.6 µM (inactive)
[38]
  GI50: 15.9 µM (inactive)
[39]
  GI50: 15.2 µM (inactive)
[40]
  GI50: 15.2 µM (inactive)
[41]
  GI50: 17.7 µM (inactive)
[42]
  GI50: 16.7 µM (inactive)
[43]
  GI50: 15.6 µM (inactive)
[44]
  GI50: 17.9 µM (inactive)
[45]
  GI50: 13.6 µM (inactive)
[46]
  GI50: 16.7 µM (inactive)
[47]
  GI50: 16.3 µM (inactive)
[48]
  GI50: 14.1 µM (inactive)
[49]
  GI50: 15.3 µM (inactive)
[50]
  GI50: 18.4 µM (inactive)
[51]
  GI50: 18.8 µM (inactive)
[52]
  GI50: 16.4 µM (inactive)
[53]
  GI50: 19.7 µM (inactive)
[54]
  GI50: 13.2 µM (inactive)
[55]
  GI50: 15.2 µM (inactive)
[56]
  GI50: 15.2 µM (inactive)
[57]
  GI50: 19 µM (inactive)

## O=C1C(Br)=C[C@H]2C3C=CC(Br)(C3=O)[C@@H]12 (some centres not stated)
[1]
  GI50: 16.7 µM (inactive)
[2]
  GI50: 13.3 µM (inactive)
[3]
  GI50: 12.8 µM (inactive)
[4]
  GI50: 2.43 µM (inactive)
[5]
  GI50: 22.5 µM (inactive)
[6]
  GI50: 2.59 µM (inactive)
[7]
  GI50: 9.75 µM (inactive)
[8]
  GI50: 16.2 µM (inactive)
[9]
  GI50: 14.4 µM (inactive)
[10]
  GI50: 7.69 µM (inactive)
[11]
  GI50: 7.62 µM (inactive)
[13]
  GI50: 9.25 µM (inactive)
[14]
  GI50: 9.62 µM (inactive)
[15]
  GI50: 13.2 µM (inactive)
[16]
  GI50: 15.4 µM (inactive)
[58]
  GI50: 19 µM (inactive)
[17]
  GI50: 14.7 µM (inactive)
[19]
  GI50: 94.8 µM (inactive)
[59]
  GI50: 5.85 µM (inactive)
[21]
  GI50: 15.3 µM (inactive)
[22]
  GI50: 35.6 µM (inactive)
[23]
  GI50: 15.7 µM (inactive)
[24]
  GI50: 3.82 µM (inactive)
[25]
  GI50: 12.9 µM (inactive)
[26]
  GI50: 12.2 µM (inactive)
[27]
  GI50: 14 µM (inactive)
[28]
  GI50: 12.2 µM
[29]
  GI50: 14.6 µM (inactive)
[30]
  GI50: 9.33 µM (inactive)
[32]
  GI50: 18 µM (inactive)
[33]
  GI50: 13.3 µM (inactive)
[34]
  GI50: 14.3 µM (inactive)
[35]
  GI50: 12.5 µM (inactive)
[36]
  GI50: 19 µM (inactive)
[37]
  GI50: 2.3 µM (inactive)
[38]
  GI50: 13.8 µM (inactive)
[39]
  GI50: 14.1 µM (inactive)
[40]
  GI50: 10.2 µM (inactive)
[41]
  GI50: 9.18 µM (inactive)
[42]
  GI50: 11.8 µM (inactive)
[43]
  GI50: 14 µM (inactive)
[44]
  GI50: 12.5 µM (inactive)
[45]
  GI50: 3.05 µM (inactive)
[46]
  GI50: 12.6 µM (inactive)
[47]
  GI50: 17.5 µM (inactive)
[48]
  GI50: 49.4 µM (inactive)
[49]
  GI50: 11.9 µM (inactive)
[50]
  GI50: 4.84 µM (inactive)
[51]
  GI50: 13.2 µM (inactive)
[52]
  GI50: 13.6 µM (inactive)
[53]
  GI50: 10.5 µM (inactive)
[54]
  GI50: 13.8 µM (inactive)
[55]
  GI50: 10.9 µM (inactive)
[56]
  GI50: 7.57 µM (inactive)
[57]
  GI50: 15.6 µM (inactive)
